These results are taken from ChEMBL document CHEMBL3272309, “Potential central nervous system antitumor agents. Aziridinylbenzoquinones. 1” (J Med Chem, 1976).

By T/C is commonly meant the ratio of treated to control.

Data set [1] concerns P388. The data set can be described thus: Antitumor activity against mouse P388 cells allografted in mouse assessed as mouse survival at 1.56 mg/kg, ip qd administered from day 1 to 9 post ip tumor-implantation relative to control. Particulars: route intraperitoneal. In kind it is functional.
For data set [2], the system named is P388. The data set can be described thus: Antitumor activity against mouse P388 cells allografted in mouse assessed as mouse survival at 0.78 mg/kg, ip qd administered from day 1 to 9 post ip tumor-implantation relative to control. In kind it is functional. Particulars: route intraperitoneal.
Data set [3] relates to P388. The data set can be described thus: Antitumor activity against mouse P388 cells allografted in mouse assessed as change in body weight at 0.78 mg/kg, ip qd administered from day 1 to 9 post ip tumor-implantation measured on day 5 relative to control. In kind it is functional. The settings on record: route intraperitoneal.
The test system of data set [4] is P388. The data set can be described thus: Antitumor activity against mouse P388 cells allografted in mouse assessed as change in body weight at 3.12 mg/kg, ip qd administered from day 1 to 9 post ip tumor-implantation measured on day 5 relative to control. Type of data set: functional. The settings on record: route intraperitoneal.
Data set [5] has as its system L1210. The experiment in a line: Antitumor activity against mouse L1210 cells allografted in ip dosed mouse assessed as optimum dose administered qd on day 1, 5 and 9. Type of data set: functional.
Data set [6] is described as follows: Antitumor activity against mouse ependymoblastoma cells allografted in mouse assessed as mouse survival at 0.25 mg/kg, ip qd administered from day 1 to 5 post intracerebral tumor-implantation relative to control. The settings on record: route intraperitoneal. Type of data set: functional.
Data set [7] deals with L1210. The data set can be described thus: Antitumor activity against mouse L1210 cells allografted in mouse assessed as change in body weight at 6.25 mg/kg, ip qd administered from day 1 to 9 post intracerebral tumor-implantation measured on day 5 relative to control. In kind it is functional. The settings on record: route intraperitoneal.
Data set [8] is described as follows: Therapeutic ratio, ratio of highest active dose to lowest active for antitumor activity against in ip dosed mouse allografted with mouse LLC cells. Type of data set: organism-based, Lewis lung carcinoma. The settings on record: in vivo, read-out: TI.

Turning to `CCOC(=O)NC1=C(N2CC2)C(=O)C(NC(=O)OCC)=C(N2CC2)C1=O` [DIAZIQUONE], the T/C in the data set on P388 [1] is 212%; in the data set on P388 [2], 199%; in data set [6], 130%. The Activity is -2.4 g with P388 [3], -4.1 g in the data set on P388 [4], 6.25 mg/kg in the data set with L1210 [5] and -2.8 g in the data set on L1210 [7]. In data set [8], the selectivity ratio was found to be 3.
